Here are results for one compound from article PMC2746281 (PLoS ONE, 2009).

One data set deals with Focal adhesion kinase (Homo sapiens, UniProt Q05397). The experiment in a line: Recombinant kinase ELISA assay, focal adhesion kinase. The class given is biochemical. The conditions noted are these: recombinant human enzyme; ELISA-based assay, poly(Glu,Tyr 4:1) substrate. On the procedure: (§1) Full details for the generation of recombinant human KIT intracellular domain and other protein kinases (including Lyn, platelet derived growth factor receptor β, epidermal growth factor receptor, fibroblast growth factor receptor 1, Src, HCK, PYK, FES, Btk, Bmx, c-Ret, c-Fms, Syk, and c-Met) are provided in the Supplemental Methods (see Supporting Information; Methods S1). Experiments on ABL1, Akt1, protein kinase C-α, insulin-like growth factor receptor 1, and Pim1 were carried out by Proqinase (Germany). All other recombinant protein kinases were performed in-house using an enzyme-linked immunoassay; experimental details are provided in the Supplemental Methods (see Supporting Information; Methods S1).

Data set [1] has as its target Epidermal growth factor receptor (Homo sapiens, UniProt P00533). The experiment in a line: Ba/F3 cell proliferation (WST-1), EGFR. The conditions noted are these: Ba/F3 cells expressing the enzyme, read-out: Cell-based assay IC50, Epidermal growth factor receptor.
The target in data set [2] is T1, Fibroblast growth factor receptor 1 (Homo sapiens, UniProt P11362). Nature of the data set: Recombinant kinase ELISA assay, FGFR1. It counts as biochemical. Details: fibroblast growth factor receptor 1 (572–959; BC018128); 6xHN (N); made in house; host or cells: baculovirus, Sf9 insect cells. The note with it: recombinant human enzyme; ELISA-based assay, poly(Glu,Tyr 4:1) substrate. As to the method:
as §1
Target sequence in this assay (P11362 434-822 limits assumed): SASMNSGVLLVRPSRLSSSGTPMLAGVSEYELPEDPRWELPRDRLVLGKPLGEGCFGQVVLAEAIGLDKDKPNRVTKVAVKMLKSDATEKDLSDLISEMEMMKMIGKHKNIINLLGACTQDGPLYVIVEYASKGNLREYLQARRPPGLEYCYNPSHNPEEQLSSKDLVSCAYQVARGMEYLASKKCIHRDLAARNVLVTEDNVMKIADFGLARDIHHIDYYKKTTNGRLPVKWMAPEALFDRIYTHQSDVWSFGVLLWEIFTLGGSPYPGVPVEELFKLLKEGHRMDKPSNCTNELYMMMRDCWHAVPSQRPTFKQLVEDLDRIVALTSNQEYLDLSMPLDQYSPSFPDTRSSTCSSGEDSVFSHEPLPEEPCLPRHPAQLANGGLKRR
The sequences encoding PDGF receptor β (residues 554–1106; GenBank accession no. BC032224), Lyn B (2–583; accession no. BC059394), fibroblast growth factor receptor 1 (572–959; accession no. BC018128), Src (2–536; accession no. BC011566), Btk (2–659; accession no. BC109079), Bmx (2–675; accession no. BC016652), c-Ret (713–1114; accession no. BC004257), c-Fms (538–972; BC047531), Syk (2–612; BC011399), Hck (2-526; accession no. BC014435), Fes (2-822; accession no. BC035357), PYK2 (2-1006; accession no. BC042599) and c-Met (949–1398; accession no. lifeseq3489592) were amplified by PCR from IMAGE cDNA clones purchased from Openbiosystems. […]

The subject of data set [3] is mastocytoma cell lines carrying KIT juxtamembrane mutants. The experiment in a line: Proliferation of mastocytoma cell lines carrying KIT juxtamembrane mutants (summary). The conditions noted are these: summary over cell lines. The class given is cell-based.
Data set [4] deals with T1, Fibroblast growth factor receptor 1. The experiment in a line: Ba/F3 cell proliferation (WST-1), FGFR1. Details: expressed in transfected cells; host or cells: Ba/F3 (general description; not repeated for this kinase). The conditions noted are these: Ba/F3 cells expressing the enzyme, read-out: Cell-based assay IC50, Fibroblast growth factor receptor 1.
Target sequence in this assay (P11362 22-822): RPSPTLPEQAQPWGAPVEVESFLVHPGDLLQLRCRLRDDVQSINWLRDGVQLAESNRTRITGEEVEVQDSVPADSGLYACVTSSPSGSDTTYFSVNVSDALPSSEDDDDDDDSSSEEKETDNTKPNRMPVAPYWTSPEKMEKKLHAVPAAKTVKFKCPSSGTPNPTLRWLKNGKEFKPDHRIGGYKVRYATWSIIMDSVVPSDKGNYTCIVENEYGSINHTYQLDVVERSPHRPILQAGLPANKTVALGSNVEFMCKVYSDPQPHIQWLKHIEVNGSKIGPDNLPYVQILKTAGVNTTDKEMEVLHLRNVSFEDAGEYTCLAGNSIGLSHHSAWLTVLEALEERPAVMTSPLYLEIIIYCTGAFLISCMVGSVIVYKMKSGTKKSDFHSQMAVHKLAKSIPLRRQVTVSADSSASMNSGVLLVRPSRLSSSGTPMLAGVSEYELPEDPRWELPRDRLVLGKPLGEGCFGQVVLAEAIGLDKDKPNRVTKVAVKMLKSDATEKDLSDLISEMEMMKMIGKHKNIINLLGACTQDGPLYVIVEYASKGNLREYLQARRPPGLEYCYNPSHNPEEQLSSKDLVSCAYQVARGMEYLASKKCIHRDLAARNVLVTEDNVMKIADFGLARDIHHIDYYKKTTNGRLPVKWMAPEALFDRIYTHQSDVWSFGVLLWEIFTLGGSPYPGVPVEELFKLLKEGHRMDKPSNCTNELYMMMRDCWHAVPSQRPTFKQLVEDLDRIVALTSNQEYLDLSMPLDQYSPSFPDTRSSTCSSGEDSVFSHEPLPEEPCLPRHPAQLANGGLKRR
In a further data set the target is T2, Jak3 (Homo sapiens, UniProt P52333).
T2 construct: expressed in transfected cells; host or cells: Ba/F3
The experiment in a line: Ba/F3 cell proliferation (WST-1), Jak3. The conditions noted are these: Ba/F3 cells expressing the enzyme, read-out: Cell-based assay IC50, Jak3.

The subject of a further data set is mouse bone marrow cells. Nature of the data set: Chromosome / mitotic apparatus damage in mouse bone marrow cells. It counts as in vivo. The note with it: two daily administrations at 437.5, 875, or 1750 mg/kg/day, our unpublished results.
The subject of data set [5] is Δ27-expressing Ba/F3 cells. Nature of the data set: Ba/F3 Δ27 tumour model in nude mice. The class given is in vivo. The note with it: for average tumour volume increase: days 14 to 25, tumours 40 mm^3, vehicle 1200%; for animals with no detectable tumours at day 25: n = 8 per group. On the procedure:
Nude mice were gamma-irradiated and implanted after 24 hours with Δ27-expressing Ba/F3 cells by subcutaneous injection.
placebo (vehicle control); or untreated (n = 8 per group). […]
Female MBRI Nu/Nu mice (7 weeks old) (Janvier, France) were housed under specific pathogen-free conditions at 20±1°C with a 12 hours light/12 hours dark cycle and ad libitum access to food and filtered water. The mice were allowed to acclimatise to the study conditions for 10 to 20 days prior to experiments. All animal experiments were performed according to Centre national de la recherche scientifique (CNRS) ethical guidelines of animal experimentation. […] The cells were centrifuged and resuspended at 5×10^6 or 7.5×10^6 cells/ml in phosphate-buffered saline. Mice were treated with 5 Gy of gamma radiation and after 24 hours they were injected in the right flank with 1.5×10^6 Δ27 Ba/F3 cells. […] For all animals, body weight was measured on the day of injection and every 5 days thereafter, with the tumour's size measured via callipers every 5 days during the treatment period for estimation of tumour volume. During the predose period and for 2 weeks post-treatment, the animals were checked for mortality or signs of morbidity once a day, increasing to twice a day checks during the treatment period.
Survival in the in vivo mouse studies was assessed by Kaplan-Meier analysis using GraphPad Prism (GraphPad Software, Inc. USA) with comparison of survival curves performed by the logrank Mantel-Cox test. The appropriate Wilcoxon or Kruskall-Wallis tests were used for group comparison of tumour volumes and BMMC migration.

In another data set the test system is HMC-1α155 cells. The experiment in a line: Mastocytoma cell line proliferation (WST-1), HMC-1α155. The conditions noted are these: Homo sapiens, 48 h; 2 days; KIT juxtamembrane mutation. It counts as cell-based. On the procedure: (B) western blotting analysis of HMC-1α155 tyrosine phosphorylation. […] (D) Western blotting analysis of BMMC tyrosine phosphorylation. Cell proliferation was assessed by WST-1 colorimetric assay. […] MW = molecular weight.

Chain of Epidermal growth factor receptor (P00533 25-1210): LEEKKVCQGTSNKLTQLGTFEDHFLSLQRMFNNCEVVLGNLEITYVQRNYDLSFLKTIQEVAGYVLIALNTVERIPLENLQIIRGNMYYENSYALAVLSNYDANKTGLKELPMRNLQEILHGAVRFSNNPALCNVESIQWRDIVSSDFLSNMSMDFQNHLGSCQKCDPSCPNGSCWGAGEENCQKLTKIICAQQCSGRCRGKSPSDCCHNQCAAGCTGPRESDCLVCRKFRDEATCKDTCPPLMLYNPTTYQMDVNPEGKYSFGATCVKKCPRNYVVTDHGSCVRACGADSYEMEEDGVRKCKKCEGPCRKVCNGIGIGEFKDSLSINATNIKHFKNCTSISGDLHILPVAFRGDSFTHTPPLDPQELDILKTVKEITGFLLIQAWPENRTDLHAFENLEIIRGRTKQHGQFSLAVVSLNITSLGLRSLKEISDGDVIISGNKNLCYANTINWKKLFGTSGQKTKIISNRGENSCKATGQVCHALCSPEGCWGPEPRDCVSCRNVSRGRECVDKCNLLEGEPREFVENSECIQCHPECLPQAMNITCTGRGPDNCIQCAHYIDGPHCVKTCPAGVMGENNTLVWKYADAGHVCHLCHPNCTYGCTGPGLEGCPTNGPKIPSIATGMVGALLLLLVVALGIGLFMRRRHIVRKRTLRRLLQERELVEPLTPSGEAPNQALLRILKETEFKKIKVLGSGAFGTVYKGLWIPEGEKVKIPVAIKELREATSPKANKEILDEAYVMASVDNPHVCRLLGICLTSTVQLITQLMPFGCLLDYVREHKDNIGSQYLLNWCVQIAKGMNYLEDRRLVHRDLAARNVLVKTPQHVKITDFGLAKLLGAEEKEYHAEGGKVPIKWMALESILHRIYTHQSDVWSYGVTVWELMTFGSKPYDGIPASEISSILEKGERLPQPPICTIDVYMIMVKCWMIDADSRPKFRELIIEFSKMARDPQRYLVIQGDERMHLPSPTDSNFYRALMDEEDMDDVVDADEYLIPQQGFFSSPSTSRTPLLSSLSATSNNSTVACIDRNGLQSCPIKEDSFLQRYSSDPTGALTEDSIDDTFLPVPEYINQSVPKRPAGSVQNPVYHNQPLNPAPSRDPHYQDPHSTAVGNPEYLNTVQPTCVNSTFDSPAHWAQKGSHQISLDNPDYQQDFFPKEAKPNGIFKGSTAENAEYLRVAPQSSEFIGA
T2 sequence (P52333 whole entry, species assumed): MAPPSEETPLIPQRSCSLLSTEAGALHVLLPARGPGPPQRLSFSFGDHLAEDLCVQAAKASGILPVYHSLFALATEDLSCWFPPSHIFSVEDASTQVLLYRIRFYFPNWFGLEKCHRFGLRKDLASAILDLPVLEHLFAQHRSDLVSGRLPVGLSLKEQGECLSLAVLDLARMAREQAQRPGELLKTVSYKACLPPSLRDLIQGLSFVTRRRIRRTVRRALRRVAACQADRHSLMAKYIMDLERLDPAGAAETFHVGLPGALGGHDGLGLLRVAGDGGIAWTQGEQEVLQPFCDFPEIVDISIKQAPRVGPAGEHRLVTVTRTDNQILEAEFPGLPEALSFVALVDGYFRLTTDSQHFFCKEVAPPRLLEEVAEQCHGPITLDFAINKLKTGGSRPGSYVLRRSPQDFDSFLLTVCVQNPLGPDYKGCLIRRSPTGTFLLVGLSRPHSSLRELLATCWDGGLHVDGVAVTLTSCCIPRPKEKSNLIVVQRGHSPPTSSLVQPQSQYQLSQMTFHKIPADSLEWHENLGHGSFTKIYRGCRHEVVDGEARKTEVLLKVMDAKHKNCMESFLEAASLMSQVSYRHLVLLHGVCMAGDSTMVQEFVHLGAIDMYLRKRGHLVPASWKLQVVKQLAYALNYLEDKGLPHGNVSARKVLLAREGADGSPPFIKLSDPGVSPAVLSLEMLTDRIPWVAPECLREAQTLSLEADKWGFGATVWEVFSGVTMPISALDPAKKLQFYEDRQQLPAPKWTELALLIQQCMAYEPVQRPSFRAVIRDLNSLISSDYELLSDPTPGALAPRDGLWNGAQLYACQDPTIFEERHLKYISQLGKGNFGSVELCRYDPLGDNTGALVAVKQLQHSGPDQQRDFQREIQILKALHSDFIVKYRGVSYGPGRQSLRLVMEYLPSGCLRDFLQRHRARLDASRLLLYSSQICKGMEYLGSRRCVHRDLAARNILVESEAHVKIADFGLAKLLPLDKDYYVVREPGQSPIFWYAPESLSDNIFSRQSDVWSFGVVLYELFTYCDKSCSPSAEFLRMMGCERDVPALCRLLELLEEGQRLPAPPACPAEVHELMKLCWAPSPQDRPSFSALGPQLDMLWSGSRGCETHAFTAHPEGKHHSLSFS
Chain of Focal adhesion kinase (Q05397 whole entry, the tested form may be a part): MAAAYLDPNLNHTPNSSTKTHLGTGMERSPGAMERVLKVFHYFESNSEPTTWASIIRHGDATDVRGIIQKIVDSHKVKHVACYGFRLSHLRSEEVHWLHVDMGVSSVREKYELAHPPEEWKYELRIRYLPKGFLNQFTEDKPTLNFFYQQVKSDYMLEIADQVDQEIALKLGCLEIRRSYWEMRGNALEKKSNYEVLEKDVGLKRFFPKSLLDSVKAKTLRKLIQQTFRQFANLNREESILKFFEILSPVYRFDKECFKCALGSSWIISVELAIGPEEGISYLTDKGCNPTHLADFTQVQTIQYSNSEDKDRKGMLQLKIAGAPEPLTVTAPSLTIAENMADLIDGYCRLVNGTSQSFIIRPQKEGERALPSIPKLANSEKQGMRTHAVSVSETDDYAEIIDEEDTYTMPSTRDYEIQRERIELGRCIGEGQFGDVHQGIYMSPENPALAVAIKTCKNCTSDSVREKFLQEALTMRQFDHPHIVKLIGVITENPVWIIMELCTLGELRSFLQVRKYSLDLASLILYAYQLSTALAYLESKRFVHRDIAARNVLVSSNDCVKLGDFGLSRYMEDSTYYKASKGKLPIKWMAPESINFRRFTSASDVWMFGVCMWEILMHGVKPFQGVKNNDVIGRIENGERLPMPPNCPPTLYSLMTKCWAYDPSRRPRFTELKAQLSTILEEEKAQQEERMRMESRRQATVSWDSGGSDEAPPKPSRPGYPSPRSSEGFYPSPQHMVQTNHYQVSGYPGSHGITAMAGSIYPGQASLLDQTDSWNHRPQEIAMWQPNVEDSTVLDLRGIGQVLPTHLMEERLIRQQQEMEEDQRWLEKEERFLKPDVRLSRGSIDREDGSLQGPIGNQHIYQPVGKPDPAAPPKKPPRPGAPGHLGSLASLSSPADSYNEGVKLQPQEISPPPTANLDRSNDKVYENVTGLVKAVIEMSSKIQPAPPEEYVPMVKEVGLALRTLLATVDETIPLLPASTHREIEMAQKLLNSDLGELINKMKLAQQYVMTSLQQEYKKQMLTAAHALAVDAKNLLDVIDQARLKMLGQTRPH

Take `CS(=O)(=O)O.CS(=O)(=O)O.Cc1ccc(NC(=O)c2ccc(CN3CCN(C)CC3)cc2)cc1Nc1nc(-c2cccnc2)cs1` [masitinib, 4-(4-methylpiperazin-1-ylmethyl)-N-[4-methyl-3-(4-pyridin-3ylthiazol-2-ylamino)phenyl]benzamide-mesylate methane sulfonic acid salt]: the IC50 on Focal adhesion kinase is > 10 µM; in data set [1], 7 ± 0.8 µM; in data set [2] it was > 10 µM; in [3] it was 0.01 to 0.03 µM; in data set [4], 7 ± 1.9 µM; at Jak3, 10 ± 0.5 µM. Also, the IC50 with HMC-1α155 cells was ~0.01 µM. The “damage to chromosomes or the mitotic apparatus” value in the data set on mouse bone marrow cells is “does not cause damage to chromosomes or the mitotic apparatus”. The “effect on total body weight” value in data set [5] (30 mg/kg intraperitoneal twice daily for 25 days) is given as “did not affect the total body weight”. The tumour growth entry in data set [5] (30 mg/kg intraperitoneal twice daily for 25 days, tumours 400 mm^3) is “Tumour growth stabilised”; in [5] (100 mg/kg oral twice daily, 5 days, tumours 500 mm^3 (data not shown)) it was “tumour growth was blocked”. In data set [5] (30 mg/kg intraperitoneal twice daily for 25 days, tumours 400 mm^3, control 30.5 days), this compound yielded a median survival time of 42 days. The “average tumour volume, placebo group compared to masitinib treated group” value in data set [5] (30 mg/kg intraperitoneal twice daily, after 10 days of treatment (day 29)) is on record as ~4 fold. In addition, the “average tumour volume increase” value is on record as 355% in data set [5] (30 mg/kg oral twice daily) and 154% in data set [5] (45 mg/kg oral twice daily). Moreover, the figures for the “animals with no detectable tumours at day 25” value in data set [5] (30 mg/kg oral twice daily) and in data set [5] (45 mg/kg oral twice daily) were “one” and “two”, respectively. Besides, in data set [5] (10, 30, or 45 mg/kg oral twice daily), the “effect on body weight gain” value is “did not affect body weight gain”.
